Assay results published in US20240156767A1, “SCREENING METHOD FOR GLP-1 SECRETION REGULATION AGENT, GLP-1 SECRETION REGULATION AGENT, COMPOSITION FOR PREVENTING OR AMELIORATING DIABETES, OBESITY, POSTPRANDIAL HYPERGLYCEMIA, NEURODEGENERATIVE DISEASE, HYPOGLYCEMIA, ADIPOSITY, OR NESIDIOBLASTOSIS, METHOD FOR PROMOTING SECRETION OF GLP-1 IN …” (The Nisshin OilliO Group, Ltd., priority 2021, published 2024).

Tested on: C57BL/6 male mice
Test: Glucose tolerance test in mice with triacylglycerols: plasma GLP-1 concentration (ELISA)
Type: in vivo
Conditions: 300 μl sample oral per mouse; glucose 2.5 g/kg 60 minutes after sample; blood 30 minutes after glucose; mean±standard error
Protocol: A glucose tolerance test was carried out by the following method to examine effects of administration of triacylglycerol to mice on the plasma GLP-1 secretion during glucose tolerance.
To the PBS solution (10 ml) obtained in the same manner as in the (1-1) above, 50 mg of carboxymethyl cellulose (trade name “Carboxymethyl cellulose sodium”, manufactured by FUJIFILM Wako Pure Chemical Industries, Ltd.) was added and mixed to obtain a carrier solution. To the obtained carrier solution, 2 g of triacylglycerol (trade name “Tridecanoin <Tricaprin>”, manufactured by New Check Prep Co., Ltd.) in which the constituent fatty acids were all capric acid was added and mixed while heating to obtain TriC10 sample.
A carrier solution was obtained in the same manner as in the (1-2) above. […]
Plasma was prepared from the obtained blood by a conventional method, and the plasma GLP-1 concentration (pM) was measured. Note here that the plasma GLP-1 concentration was measured by ELISA using a commercially available kit (trade name “Glucagon Like Peptide-1 (Active) ELISA”, manufactured by Sigma-Aldrich). […]

Q: CCCCCCCCCC(=O)OCC(COC(=O)CCCCCCCCC)OC(=O)CCCCCCCCC [TriC10, Tridecanoin <Tricaprin>] was tested. Which “GLP-1 CONCENTRATION (plasma)” value did it give?
A: 2.803 ± 0.952 pM
